Entries after “also recorded” stand apart in the source; their conditions may differ.

Assay [1] concerns A549 cells. The experiment in a line: Cellular location observed by CLSM. It is filed as cell-based, human. The note with it: 800 µM Au, 48 h, live A549 cells. On the procedure:
A549 cells were seeded on glass-bottom dishes (35 mm, MatTek Corporation) for confocal laser scanning microscopy (CLSM) observation. After 24 h, Au25P1_9 was added to culture medium and the final Au dose was 800 µM. The A549 cells were next exposed to Au25P1_9 for 48 h. Then the cells were washed three times with PBS and incubated with 10 µg/mL Hoechst 33342 at 37 °C under darkness for 10 min. Before observation, the culture medium was discarded and the cells were washed three times with PBS, supplemented with fresh culture medium. Finally, in A549 cells, the cell nucleus and Au25P1_9 were imaged under Nikon Ti-e microscope with excitation at wavelengths of 405 nm and 560 nm, respectively. To identify the accurate location of Au25P1_9 in cytoplasm of A549 cells, lysotracker green, a lysosome probe, was added in the medium after cells were incubated with Au25P1_9 for 48 h. The cells were then observed by CLSM with excitation at wavelengths of 488 nm and 560 nm, respectively.

In assay [2] the test system is A549 cells. The experiment in a line: Intracellular ROS level by flow cytometry (CM-H2DCFDA). The note with it: 48 h. It is filed as cell-based, human. As to the method: For CLSM observation, cells were prior cultured on glass-bottom dishes. Au25P1_9 was added to culture medium and the final Au dose was 800 µM. After 48 h. the cells were washed three times with PBS and incubated with 5 µM CM-H2DCFDA, at 37 °C under darkness for 30 min. Before CLSM observation, the culture medium was discarded and the cells were washed three times with PBS, supplemented with fresh culture medium. Finally, ROS in cells were highlighted by green fluorescence emission of CM-H2DCFDA, imaged under Nikon Ti-e microscope with excitation at wavelengths of 488 nm. For flow cytometry analysis, cells were prior seeded on 6-well plate (at the density of 1 × 10^5 cells/well) for 24 h. Then the medium was discarded and fresh culture medium containing Au25P1_9 with Au dose at 800 μM was added. For another 48 h incubation, the cells were washed thrice with PBS, and incubated with 5 µM CM-H2DCFDA at 37 °C under darkness for 30 min. After washing with PBS, the cells were collected and suspended in ice cold PBS. Fluorescence intensity of 20,000 events was recorded using an Accuri C6 flow cytometer and the level of intracellular ROS was analyzed by Cflow software.
In general terms: A flow cytometer gives signals particle by particle.

For assay [3], the system named is GPx-1. The experiment in a line: GPx-1 activity in A549 cell lysate. It is filed as biochemical, human. Conditions: Au dose 0, 5, 25, 100, 400 μM, 10 min. On the procedure: A549 cells were prior seeded on 6-well plate (at the density of 1 × 10^5 cells/well) for 24 h. Then the medium was discarded and fresh culture medium with Au25P1_9 at different doses was added to make cells exposed to final Au doses at 0, 100, 200, 400 and 800 μM, respectively. After another 48 h incubation, the cells were washed thrice with PBS and lysed by cell lysis buffer containing 1 mM PMSF for 15 min on a shaker at 4 °C. The lysed cells were collected and centrifuged for 20 min at 12,000 g to get total protein of cells. The protein dose of each sample was quantified by BCA Protein Assay Kit and the GPx-1 activity of peptide-Au clusters treated A549 cells was measured by GPx Activity Colorimetric Assay Kit, respectively. For the control experiments, a series of Au doses of Au25P1_9 at 0, 5, 25, 100, 400 μM were incubated with the GPx-1 containing cell lysate of A549 cells for 10 min and the GPx-1 activity of theses samples was also measured. The GPx-1 activity of untreated samples was set as 100%, and that of peptide-Au clusters treated samples were expressed as a relative percentage of untreated ones.

The test system of assay [4] is GPx-1. The experiment in a line: GPx-1 enzyme activity suppression in buffer. The assay is classed as biochemical, bovine. The note with it: 10 min. An excerpt: The peptides (N2H-CCYGGPEEEEEVG-COOH (named P1), NH2-CCYGGPDDDEDVG-COOH (named P2) and NH2-CCYGGPEEVEEVG-COOH (named P3)) were chemically synthesized by a solid phase method (China Peptides Co. Ltd, Purity: 98%). Hydrogen tetrachloroaurate (III) (HAuCl4·4H2O) was purchased from Sinopharm Chemical Reagent Co. Ltd. Sodium hydroxide (NaOH), nitric acid (HNO3), hydrochloric acid (HCl) and hydrogen peroxide (H2O2) were purchased from Beijing Chemical Reagent Co., China. Human non-small cell lung carcinoma cells (A549 cells), Henrietta Lacks strain of cancer cells (Hela cells) and human colon adenocarcinoma cells (HCT-8 cells) were from Cancer Institute and Hospital, Chinese Academy of Medical Sciences. Fetal bovine serum (FBS) and trypsin-EDTA were obtained from Gibco, USA. Penicillin-streptomycin solution, cell culture medium DMEM and RPMI 1640 were purchased from Hyclone. Hoechst 33342, LysoTracker®Green DND-26, and CM-H2DCFDA were from Molecular Probes, USA. NucView™ 488 Caspase-3 Assay Kit was bought from Biotium, USA. 5,5′,6,6′-tetrachloro-1,1′,3,3′-tetraethylbenzimidazolocarbocyanine iodide (JC-1), cell lysis buffer for Western and IP, phenylmethanesulfonyl fluoride (PMSF) and BCA Protein Assay Kit were obtained from Beyotime Institute of Biotechnology, China. Protease inhibitor cocktail tablets were from Roche Diagnostics, GmbH, Mannheim, Germany. Cell counting kit-8 (CCK-8) reagents and Annexin V-FITC/Propidium (PI) Apoptosis Detection Kit were purchased from Dojindo Laboratories, Japan. GPx from bovine erythrocytes […] was provided by Sigma Aldrich, USA. GPx Activity Colorimetric Assay Kit was provided by Biovision, USA. Anti-GPx-1 antibody was offered by Abcam, UK. PARP antibody, caspase-3 antibody and β-actin antibody were offered by Cell Signaling Technology, USA. Amicon ultra centrifugal filter devices (Merck Millipore, MWCO: 10 kDa) were used for purification steps. Ultrapure Millipore (Mini-Q) water (18.2 MΩ) was used throughout the experiments. […]
Pure GPx (lyophilized powder, ≥300 units/mg protein) were diluted by GPx sample buffer and incubated with peptide-Au clusters (Au25P1_9, Au25P2_9 and Au25P3_9) at a series of Au dose (0, 25, 100, 400 μM) for 10 min, respectively. […] The GPx activity of untreated samples was set as 100%, and that of peptide-Au clusters treated samples were expressed as a relative percentage of untreated ones.
Figure S12. Peptide-Au clusters treated GPx-1 activity measured in buffer solution. The decrease in NADPH absorbance measured at 340 nm during the oxidation of NADPH to NADP is the indicative of GPx activity,^1, 2 which is in a dose dependent manner in tube experiments when treated with serial doses of peptide-Au clusters.

As for “CCYGGPEEEEEVG [Au25P1_9, Au25 cluster coated by nine P1 peptides (…)]”, the cellular location entry in the assay on A549 cells [1] was “red emission can be observed in the cytoplasm of live A549 cells”. Also, the “FL1-H fluorescence intensity (ROS)” value in the assay on A549 cells [2] (Au dose 800 µM, with CM-H2DCFDA, CM-H2DCFDA only control 20088, untreated 2674) stood at 43464. In addition, in the assay with A549 cells [2] (Au dose of 800 μM, 5 µM CM-H2DCFDA, flow cytometry, 20,000 events), the “intracellular ROS level relative to control” value was ~ 210%. Further, in the assay with GPx-1 [3], the “GPx-1 activity in cell lysate” value was “suppressed via an Au dose dependent manner”. The “GPx-1 activity suppression in buffer” value with GPx-1 [4] (Au dose 0, 25, 100, 400 μM) was “exhibits the best suppression capacity for GPx-1; also recorded: the most effective candidate for suppression of GPx-1 activity in buffer and cells”. Besides, the “GPx-1 activity (relative to untreated = 100%)” value with GPx-1 [4] (buffer, Au dose of 400 μM, GPx Activity Colorimetric Assay Kit, NADPH absorbance at 340 nm) is 12%.
